Reference: publication PMC9298037 (Chemmedchem, 2021)
Like-named read-outs stand apart in the source and are kept apart here.

How the values were obtained:
[1] = target: T1, MELK (Homo sapiens, UniProt Q14680); assay: biochemical; conditions: for inhibition at 10 µM: read-out: Inh. %, single-point screen at 10uM concentration, Table S1
[2] = target: T1, MELK

T1 sequence (Q14680 whole entry): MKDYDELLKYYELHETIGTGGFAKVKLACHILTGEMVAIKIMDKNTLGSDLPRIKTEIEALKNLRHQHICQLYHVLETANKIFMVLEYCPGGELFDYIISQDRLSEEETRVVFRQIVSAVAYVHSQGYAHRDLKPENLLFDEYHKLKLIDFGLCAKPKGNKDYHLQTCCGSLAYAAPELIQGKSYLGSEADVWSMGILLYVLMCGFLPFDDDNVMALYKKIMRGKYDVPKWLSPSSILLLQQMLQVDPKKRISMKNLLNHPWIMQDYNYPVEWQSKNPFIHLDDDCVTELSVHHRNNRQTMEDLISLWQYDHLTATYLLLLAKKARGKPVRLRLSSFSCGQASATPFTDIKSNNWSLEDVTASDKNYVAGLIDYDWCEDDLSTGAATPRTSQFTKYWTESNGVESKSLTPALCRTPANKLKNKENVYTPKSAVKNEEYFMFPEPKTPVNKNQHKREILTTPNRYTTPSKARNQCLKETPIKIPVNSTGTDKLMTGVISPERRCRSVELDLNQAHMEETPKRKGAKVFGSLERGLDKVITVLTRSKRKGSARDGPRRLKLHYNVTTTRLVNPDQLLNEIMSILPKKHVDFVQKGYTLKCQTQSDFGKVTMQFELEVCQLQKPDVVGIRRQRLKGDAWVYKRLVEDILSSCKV

`Cc1c2ccccc2cn2nc(-c3ccc(Cl)cc3Cl)nc12` [Compound 13, 2‐(2,4‐dichlorophenyl)‐10‐methyl‐[1,2,4]triazolo[1,5‐b]isoquinoline] was tested, and the IC50 [1] was 24.1 µM.
With `Cc1c2ccccc2cn2nc(-c3ccc(C(F)(F)F)cc3)nc12` [Compound 8, 10‐methyl‐2‐(4‐(trifluoromethyl)phenyl)‐[1,2,4]triazolo[1,5‐b]isoquinoline] the inhibition at 10 µM [1] was greater than 40%.
For `Cc1c2ccccc2cn2nc(-c3ccccn3)nc12` [Compound 11, 10‐methyl‐2‐(pyridin‐2‐yl)‐[1,2,4]triazolo[1,5‐b]isoquinoline], the IC50 [1] was 6.3 µM.
For `COc1cccc(-c2nc3c(C)c4ccccc4cn3n2)c1` [Compound 5, 2‐(3‐methoxyphenyl)‐10‐methyl‐[1,2,4]triazolo[1,5‐b]isoquinoline], the IC50 [1] was 4.93 µM and the inhibition at 10 µM [1] was greater than 40%.
In the case of `CCc1c2ccccc2cn2nc(-c3ccc(Cl)cc3)nc12` [Compound 17, 2‐(4‐chlorophenyl)‐10‐ethyl‐[1,2,4]triazolo[1,5‐b]isoquinoline], the IC50 [1] is reported as greater than 3.7 µM.
In the case of `COc1ccc(-c2nc3c(C)c4ccccc4cn3n2)cc1` [Compound 4, 2‐(4‐methoxyphenyl)‐10‐methyl‐[1,2,4]triazolo[1,5‐b]isoquinoline], the IC50 [1] is reported as 3.67 µM and the inhibition at 10 µM [1] is reported as greater than 40%.
`CCc1c2ccccc2cn2nc(-c3ccc(OC)cc3)nc12` [Compound 18, 10‐ethyl‐2‐(4‐methoxyphenyl)‐[1,2,4]triazolo[1,5‐b]isoquinoline] was tested, and the “inhibitory activity (in words)” value ([2]; MELK) was “sub‐micromolar”, the activity boost ([2]; over 3-methoxyphenyl counterpart 19) was 2.5 fold and the activity boost ([2]; over 10-methyl counterpart 4) was 4.5 fold. The IC50 [1] was 0.794 µM.
`CCc1c2ccccc2cn2nc(-c3cccc(OC)c3)nc12` [Compound 19, 10‐ethyl‐2‐(3‐methoxyphenyl)‐[1,2,4]triazolo[1,5‐b]isoquinoline] was tested, and the activity boost ([2]; in comparison to compound 5 (10-ethyl vs 10-methyl)) was 2.5 fold, the IC50 [1] was 2.04 µM and the inhibition at 10 µM [1] was greater than 40%.
With `c1ccc(-c2nc3c4ccccc4ccn3n2)cc1` [ID 1855, 2‐phenyl‐[1,2,4]triazolo[3,2‐a]isoquinoline] the inhibition at 10 µM [1] was greater than 40%.
